Values joined by “and” are separate entries in the source; they are usually repeats but may differ in a detail not shown here. Equal values may be shown once.
Experiments:
RAMOS cells = conditions: BOR 0.6 mg/kg i.p., MOR202 1 mg/kg i.v.
Protocol: Fifty-five female SCID mice were pre-treated with Cyclophosphamide (75 mg/kg, i.p., twice daily) for two days prior to RAMOS cell inoculation (Day −5 and −4). On the day of inoculation (Day −3), all fifty-five mice were inoculated with 1×10^6 RAMOS cells each (in 100 μL) intravenously into the tail vein. Forty-eight of the mice were randomised by body weight into six groups of eight.
The study continued for 98 days and the measured endpoint was survival.

LP-1 cells [1] = test: ADCC with human PBMCs, flow cytometry (CalceinAM/PI); assay type: cell-based; conditions: LP-1 target cells treated with bortezomib before MOR202 15 μg/ml; FIG. 10
Protocol: Using the methods described in Example 4, the ADCC effect of combining bortezomib and MOR202 was analyzed. Here, the target cells were treated with bortezomib prior to the treatment with MOR202. Both target cells. NCI-H929 and LP-1 cells were tested.

AMO-1 cells = test: Cell proliferation, XTT-based assay; design: species or system human; conditions: Homo sapiens, AMO1, bortezomib alone, XTT, read-out: IC50 (inhibition of cell proliferation)
Protocol: (§1) Cells were collected and distributed in 96-well plates with 5000 cells per well.
(§2) After incubation, plates were analyzed for cell proliferation in a quantitative colorimietric XTT-based assay using the cell proliferation kit II (ROCHE, Cell Proliferation Kit II, Cat. No.: 11465015001). For subsequent measurement plates were subjected to Tecan Genios Reader and absorbance at 492 nm was detected.
(§3) Increasing amounts of Bortezomib (Velcade®, Lot: No.: #9AZSY00) were applied to AMO-1, LP-1, NCI-H929 and RPMI-8226 cells and incubated for 24 h, 48 h and 72 h. After incubation, period plates were analyzed for cell proliferation in a quantitative colorimietric XTT-based assay using the cell proliferation kit II (ROCHE, Cell Proliferation Kit II, Cat. No.: 11465015001). For subsequent measurement, plates were subjected to Tecan Genios Reader and absorbance at 492 nm was detected.

NCI-H929 cells [2] = test: Cell proliferation, XTT-based assay; conditions: Homo sapiens, NCI-H929, read-out: IC50 (inhibition of cell proliferation)
Protocol: as §1, §2, §3

RPMI-8226 cells = test: Cell proliferation, XTT-based assay; conditions: Homo sapiens, bortezomib alone, read-out: IC50 (inhibition of cell proliferation)
Protocol: as §3

LP-1 cells [3] = test: Cell proliferation, XTT-based assay; conditions: Homo sapiens, bortezomib alone, read-out: IC50 (inhibition of cell proliferation)
Protocol: as §3

NCI-H929 cells [4] = test: ADCC with human PBMCs, flow cytometry (CalceinAM/PI); conditions: NCI-H929 target cells treated with bortezomib before MOR202 15 μg/ml; FIG. 9
Protocol: PBMC's were isolated by density gradient centrifugation of freshly isolated human blood. Isolated blood from different donors were layered on a defined volume of Biocoll (Biochrome AG; CAT No.:L6115; LOT No.:1050T) in a Falcon tube and centrifuged at 380 g. The PBMCs were isolated and supplemented with RPMI medium.
Cell suspensions were further incubated for 4 h at 37° C. To detect dead AMO-1 cells, cell suspensions were challenged with propidium iodide (PI) and subsequently analyzed in flow cytometry. Target cells were separated via gating of CalceinAM positive cell populations, and cells killed via ADCC were quantified.
Single and combination doses of 5 μM LEN and 15 μg/ml of MOR03207 and 0.2 or 0.07 μg/ml MOR202 were used.
Single and combination doses of 5 μM LEN and 15 μg/ml of MOR03207 and 0.2* or 0.07 μg/m MOR202 were used.

NCI-H929 MM cells = test: NCI-H929 bone lysis SCID mouse model, MOR202 and BOR (MicroCT); assay type: in vivo, SCID mice
Excerpt: 63 SCID mice were inoculated on Day (−7) intra-tibially with 2.5×10^6 NCI-H929 MM cells in order to induce bone lysis. Bortezomib (Groups A and AB) and Vehicle Control (Group C) treatments started on Day (−1). MOR202 treatments (Groups B and AB) started on Day 0. Treatment continued for 6 weeks.
MicroCT Scan was used to assess bone lysis and included a 3-dimensional analysis comprising Total Bone Volume (TBV), Trabecular Bone Volume (Tb.BV), Trabecular Pattern Factor (Tb.Pf) and Structure Model Index (SMI). Table 10 above defines each of these parameters.

[5] = Bortezomib 0.6 mg/kg i.p. twice per week, MOR202 3 mg/kg i.p. three times per week, 6 weeks, lower = less bone lysis
[6] = group average of 10 mice, Bortezomib 0.6 mg/kg i.p., MOR202 3 mg/kg i.p., 6 weeks

In the case of `CC(C)C[C@H](NC(=O)[C@H](Cc1ccccc1)NC(=O)c1cnccn1)B(O)O` [bortezomib], the “Number of mice alive at study termination (day 98)” value (RAMOS cells) is reported as 0/8, the “Day of death (post-inoculation) Mean” value (RAMOS cells; study 98 days) is reported as 19.1 days and the “Day of death (post-inoculation) Median” value (RAMOS cells; study 98 days) is reported as 19 days. The “% ILS (based on median death day)” value (RAMOS cells; vs vehicle control) was −7%, the “Enhancement of MOR202 ADCC activity by bortezomib (in words)” value (LP-1 cells [1]) was “enhancement in MOR202 activity” and the IC50 (AMO-1 cells) was 3.9 nM. It also gave an IC50 (NCI-H929 cells [2]) of 3.3 nM, an IC50 (RPMI-8226 cells) of 9 nM and an IC50 (LP-1 cells [3]) of 6.1 nM. The “Enhancement of MOR202 ADCC activity by bortezomib (in words)” value (NCI-H929 cells [4]) was “enhancement in MOR202 activity”, the “Structure Model Index (SMI), individual mouse” value (NCI-H929 MM cells; [5]) was 2.443 and 2.374 and 2.156 and 2.262 and 2.700 and 2.981 and 3.007 and 2.553 and 2.337 and 2.273 and the “Trabecular Pattern Factor (Tb · Pf), individual mouse” value (NCI-H929 MM cells; [5]) was 25.893 mm^−1 and 26.044 mm^−1 and 16.877 mm^−1 and 23.179 mm^−1 and 32.463 mm^−1 and 33.152 mm^−1 and 34.609 mm^−1 and 31.813 mm^−1 and 27.147 mm^−1 and 23.582 mm^−1. The “Structure Model Index (SMI), Average” value (NCI-H929 MM cells; [6]) was 2.509, the “Trabecular Pattern Factor (Tb · Pf), Average” value (NCI-H929 MM cells; [6]) was 27.476 mm^−1 and the “Reduction of bone lysis compared to vehicle control” value (NCI-H929 MM cells; non-inoculated tibia = 0%, vehicle = 100% bone lysis, MOR202 alone 12 mg/kg, BOR alone 0.6 mg/kg, combination 3 mg/kg MOR202 and 0.6 mg/kg BOR) was 40%.

Reference: patent publication US9289490B2, “Combinations and uses thereof” (MORPHOSYS AG, priority 2010, dated 2016)
